Measured values as given in patent US7595398B2, “N-(5-membered aromatic ring)-amido anti-viral compounds” (SmithKline Beecham Corporation, priority 2005, dated 2009).

What follows are molecules tested on HCV replicon I389luc-ubi-neo/NS3-3′/ET in ET (Huh-lucubineo-ET) cells; screening for HCV RNA dependent RNA polymerase (assay: Replicon Assay (luciferase, ET cell line Huh-lucubineo-ET)). Details: Hepatitis C virus; inhibition of replication relative to no compound control; test concentration of 10 μM according to the fitted equation; luciferase 48-72 hours.
Format: cell-based
Method: A cell line, ET (Huh-lucubineo-ET) was used for screening of compounds of the present invention for HCV RNA dependent RNA polymerase. The ET cell line was stably transfected with RNA transcripts harboring a I389luc-ubi-neo/NS3-3′/ET; replicon with firefly luciferase-ubiquitin-neomycin phosphotransferase fusion protein and EMCV-IRES driven NS3-5B polyprotein containing the cell culture adaptive mutations (E1202G; T12801; K1846T) (Krieger at al, 2001 and unpublished). The ET cells were grown in DMEM, supplemented with 10% fetal calf serum, 2 mM Glutamine, Penicillin (100 IU/mL)/Streptomycin (100 μg/mL), 1× nonessential amino acids, and 250 μg/mL G418 (“Geneticin”). They were all available through Life Technologies (Bethesda, Md.). The cells were plated at 0.5-1.0×10^4 cells/well in the 96 well plates and incubated for 24 hrs before adding nucleoside analogs. […] Luciferase activity were measured 48-72 hours later by adding a lysis buffer and the substrate (Catalog number Glo-lysis buffer E2661 and Bright-Glo luciferase system E2620 Promega, Madison, Wis.). Cells should not be too confluent during the assay. Percent inhibition of replication was plotted relative to no compound control. Under the same condition, cytotoxicity of the compounds was determined using cell proliferation reagent, WST-1(Roche, Germany). The compounds showing antiviral activities, but no significant cytotoxicities were chosen to determine IC50 and TC50. For these determinations, 10 concentrations of each compound were used. Concentrations for test compounds typically span a range of 500 fold. IC50 and TC50 values were calculated by fitting % inhibition at each concentration (I) to the following equation: % inhibition=100%/[1+10^(log IC50−log (I))*b] where b is Hill's coefficient.
Work on `O=C(NC1CC1)c1ccc(-c2csc(NC(=O)[C@@H]3CCCN3C(=O)c3ccccc3)n2)cc1` [Compound 5367, 1-Benzoyl-pyrrolidine-2-carboxylic acid [4-(4-cyclopropylcarbamoyl-phenyl)-thiazol-2-yl]-amide] yielded an inhibition at 10 µM of 97.3%.
Work on `COc1ccc(-c2csc(NC(=O)[C@@H]3CCCN3C(=O)OCc3ccccc3)n2)cc1Br` [Compound 5016, 2-[4-(3-Bromo-4-methoxy-phenyl)-thiazol-2-ylcarbamoyl]-pyrrolidine-1-carboxylic acid benzyl ester] yielded an inhibition at 10 µM of 100%.
For `O=C(NC1CC1)c1ccc(-c2csc(NC(=O)[C@@H]3CCCN3C(=O)c3ccncc3)n2)cc1` [Compound 5321, 1-(Pyridine-4-carbonyl)-pyrrolidine-2-carboxylic acid [4-(4-cyclopropylcarbamoyl-phenyl)-thiazol-2-yl]-amide], the inhibition at 10 µM was 91.3%.
In the case of `O=C(Nc1nc(CCc2ccccc2)cs1)[C@@H]1CCCN1C(=O)OCc1ccccc1` [Compound 5003, 2-(4-Phenethyl-thiazol-2-ylcarbamoyl)-pyrrolidine-1-carboxylic acid benzyl ester], the inhibition at 10 µM is reported as 99.9%.
`O=C(Nc1ccc(-c2csc(NC(=O)[C@@H]3C[C@@H](O)CN3C(=O)OCc3ccccc3)n2)cc1)C1CC1` [Compound 5310, 2-{4-[4-(Cyclopropanecarbonyl-amino)-phenyl]-thiazol-2-ylcarbamoyl}-4-hydroxy-pyrrolidine-1-carboxylic acid benzyl ester] was tested, and the inhibition at 10 µM was 99.3%.
For `O=C(NC1CC1)c1ccc(-c2csc(NC(=O)[C@@H]3CCCN3C(=O)Cc3cc(F)cc(F)c3)n2)cc1` [Compound 5315, 1-[2-(3,5-Difluoro-phenyl)-acetyl]-pyrrolidine-2-carboxylic acid [4-(4-cyclopropylcarbamoyl-phenyl)-thiazol-2-yl]-amide], the inhibition at 10 µM was 99.7%.
`O=C(Nc1nc(-c2ccc([N+](=O)[O-])cc2)cs1)[C@@H]1CCCN1C(=O)OCc1ccccc1` [Compound 5041, 2-[4-(4-Nitro-phenyl)-thiazol-2-ylcarbamoyl]-pyrrolidine-1-carboxylic acid benzyl ester] showed an inhibition at 10 µM of 76%.
For `O=C(Nc1nc(C2CCOCC2)cs1)[C@@H]1CCCN1C(=O)OCc1ccccc1` [Compound 5051, 2-[4-(Tetrahydro-pyran-4-yl)-thiazol-2-ylcarbamoyl]-pyrrolidine-1-carboxylic acid benzyl ester], the inhibition at 10 µM was 3.42%.
`CCC(=O)Nc1ccc(-c2csc(NC(=O)[C@@H]3CCCN3C(=O)OCc3ccccc3)n2)cc1` [Compound 5017, 2-[4-(4-Propionylamino-phenyl)-thiazol-2-ylcarbamoyl]-pyrrolidine-1-carboxylic acid benzyl ester] gave an inhibition at 10 µM of 99.7%.
`O=C(Nc1nc(-c2cccc(NCC3CC3)c2)cs1)[C@@H]1CCCN1C(=O)OCc1ccccc1` [Compound 5335, 2-{4-[3-(Cyclopropylmethyl-amino)-phenyl]-thiazol-2-ylcarbamoyl}-pyrrolidine-1-carboxylic acid benzyl ester] gave an inhibition at 10 µM of 92.5%.
In the case of `O=C(NC1CC1)c1ccc(-c2cnc(NC(=O)[C@@H]3CCCN3C(=O)OCc3ccccc3)s2)cc1` [Compound 5352, 2-[5-(4-Cyclopropylcarbamoyl-phenyl)-thiazol-2-ylcarbamoyl]-pyrrolidine-1-carboxylic acid benzyl ester], the inhibition at 10 µM is reported as 7.07%.
`O=C(NCCN1CCOCC1)c1ccc(-c2csc(NC(=O)C3CCCN3C(=O)OCc3ccccc3)n2)cc1` (centres unmarked) [Compound 5339, 2-{4-[4-(2-Morpholin-4-yl-ethylcarbamoyl)-phenyl]-thiazol-2-ylcarbamoyl}-pyrrolidine-1-carboxylic acid benzyl ester] showed an inhibition at 10 µM of 100%.
For `O=C(NCCN1CCCCC1)c1ccc(-c2csc(NC(=O)[C@@H]3CCCN3C(=O)OCc3ccccc3)n2)cc1` [Compound 5307, 2-{4-[4-(2-Piperidin-1-yl-ethylcarbamoyl)-phenyl]-thiazol-2-ylcarbamoyl}-pyrrolidine-1-carboxylic acid benzyl ester], the inhibition at 10 µM was 100%.
Molecule `O=C(Nc1nc(-c2cccnc2)cs1)[C@@H]1CCCN1C(=O)OCc1ccccc1` [Compound 5338, 2-(4-Pyridin-3-yl-thiazol-2-ylcarbamoyl)-pyrrolidine-1-carboxylic acid benzyl ester] has an inhibition at 10 µM of 75.2%.
`O=C(NC1CCNCC1)c1ccc(-c2csc(NC(=O)C3CCCN3C(=O)OCc3ccccc3)n2)cc1` (centres unmarked) [Compound 5356, 2-{4-[4-(Piperidin-4-ylcarbamoyl)-phenyl]-thiazol-2-ylcarbamoyl}-pyrrolidine-1-carboxylic acid benzyl ester] was tested, and the inhibition at 10 µM was 100%.
In the case of `O=C(NC1CC1)c1ccc(-c2csc(NC(=O)[C@H]3CCCN3C(=O)OCc3ccccc3)n2)cc1` [Compound 5349, 2-[4-(4-Cyclopropylcarbamoyl-phenyl)-thiazol-2-ylcarbamoyl]-pyrrolidine-1-carboxylic acid benzyl ester], the inhibition at 10 µM is reported as 28.6%.
`O=C(Nc1nc(-c2c(F)cccc2F)cs1)[C@@H]1CCCN1C(=O)OCc1ccccc1` [Compound 5059, 2-[4-(2,6-Difluoro-phenyl)-thiazol-2-ylcarbamoyl]-pyrrolidine-1-carboxylic acid benzyl ester] showed an inhibition at 10 µM of 88%.
`O=C(NC1CC1)c1ccc(-c2csc(NC(=O)[C@@H]3SCCN3C(=O)OCc3ccccc3)n2)cc1` [Compound 5350, 2-[4-(4-Cyclopropylcarbamoyl-phenyl)-thiazol-2-ylcarbamoyl]-thiazolidine-3-carboxylic acid benzyl ester] was tested, and the inhibition at 10 µM was 100%.
Molecule `O=C(Nc1nc(-c2ccc3ccccc3c2)cs1)[C@@H]1CCCN1C(=O)OCc1ccccc1` [Compound 5060, 2-(4-Naphthalen-2-yl-thiazol-2-ylcarbamoyl)-pyrrolidine-1-carboxylic acid benzyl ester] has an inhibition at 10 µM of 98.4%.
`COc1ccc2cc(-c3csc(NC(=O)[C@@H]4CCCN4C(=O)OCc4ccccc4)n3)c(=O)oc2c1` [Compound 5043, 2-[4-(7-Methoxy-2-oxo-2H-chromen-3-yl)-thiazol-2-ylcarbamoyl]-pyrrolidine-1-carboxylic acid benzyl ester] showed an inhibition at 10 µM of 3.61%.
Work on `O=C(Nc1cccc(-c2csc(NC(=O)[C@@H]3CCCN3C(=O)OCc3ccccc3)n2)c1)c1ccc(Cl)cc1` [Compound 5038, 2-{4-[3-(4-Chloro-benzoylamino)-phenyl]-thiazol-2-ylcarbamoyl}-pyrrolidine-1-carboxylic acid benzyl ester] yielded an inhibition at 10 µM of 100%.
`O=C(NC1CC1)c1ccc(-c2csc(NC(=O)[C@@H]3CCCN3C(=O)Cc3ccc(F)cc3)n2)cc1` [Compound 5323, 1-[2-(4-Fluoro-phenyl)-acetyl]-pyrrolidine-2-carboxylic acid [4-(4-cyclopropylcarbamoyl-phenyl)-thiazol-2-yl]-amide] gave an inhibition at 10 µM of 81.5%.
Molecule `O=C(Nc1nc(COc2ccc(Cl)cc2)cs1)[C@@H]1CCCN1C(=O)OCc1ccccc1` [Compound 5045, 2-[4-(4-Chloro-phenoxymethyl)-thiazol-2-ylcarbamoyl]-pyrrolidine-1-carboxylic acid benzyl ester] has an inhibition at 10 µM of 6.85%.
`O=C(Nc1cccc(-c2csc(NC(=O)C3CCCN3C(=O)OCc3ccccc3)n2)c1)C1CC1` (centres unmarked) [Compound 5039, 2-{4-[3-(Cyclopropanecarbonyl-amino)-phenyl]-thiazol-2-ylcarbamoyl}-pyrrolidine-1-carboxylic acid benzyl ester] was tested, and the inhibition at 10 µM was 99.6%.
`O=C(NC1CC1)c1ccc(-c2csc(NC(=O)C3CCC[C@H]3C(=O)NCc3ccccc3)n2)cc1` (mixture of isomers) [Compound 5340, Cyclopentane-1,2-dicarboxylic acid 1-benzylamide 2-{[4-(4-cyclopropylcarbamoyl-phenyl)-thiazol-2-yl]-amide}] showed an inhibition at 10 µM of 100%.
`CCCCC(=O)Nc1ccc(-c2csc(NC(=O)[C@@H]3CCCN3C(=O)OCc3ccccc3)n2)cc1` [Compound 5089, 2-[4-(4-Pentanoylamino-phenyl)-thiazol-2-ylcarbamoyl]-pyrrolidine-1-carboxylic acid benzyl ester] gave an inhibition at 10 µM of 100%.
Molecule `CC(C)(C)OC(=O)N1CCCC(NC(=O)c2ccc(-c3csc(NC(=O)[C@@H]4CCCN4C(=O)OCc4ccccc4)n3)cc2)C1` (stereo in doubt) [Compound 5365, 3-(4-{2-[(1-Benzyloxycarbonyl-pyrrolidine-2-carbonyl)-amino]-thiazol-4-yl}-benzoylamino)-piperidine-1-carboxylic acid tert-butyl ester] has an inhibition at 10 µM of 99.9%.
`O=C(NC1CC1)c1ccc(-c2csc(NC(=O)C3COCN3C(=O)OCc3ccccc3)n2)cc1` (centres unmarked) [Compound 5311, 4-[4-(4-Cyclopropylcarbamoyl-phenyl)-thiazol-2-ylcarbamoyl]-oxazolidine-3-carboxylic acid benzyl ester] was tested, and the inhibition at 10 µM was 99.7%.
Molecule `Nc1cccc(-c2cnc(NC(=O)[C@@H]3CCCN3C(=O)OCc3ccccc3)s2)c1` [Compound 5114, 2-[5-(3-Amino-phenyl)-thiazol-2-ylcarbamoyl]-pyrrolidine-1-carboxylic acid benzyl ester] has an inhibition at 10 µM of 25%.
